# In PubChem BioAssay (NCI):
#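 96-well plates; 48 h exposure; 5 concentrations. Endpoints by linear interpolation between flanking doses. Not reached: highest tested concentration assigned. TGI: total growth inhibition.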
# Key:
# Experiment in all cases: NCI anticancer screen, dose series, 48 h
# 786-0 renal = test system: 786-0 renal
# A498 renal = test system: A498 renal
# A549 NSCLC = test system: A549 NSCLC
# ACHN renal = test system: ACHN renal
# BT-549 breast = test system: BT-549 breast
# CAKI-1 renal = test system: CAKI-1 renal
# CCRF-CEM leukemia = test system: CCRF-CEM leukemia
# COLO 205 colon = test system: COLO 205 colon
# DU-145 prostate = test system: DU-145 prostate
# EKVX NSCLC = test system: EKVX NSCLC
# HCC-2998 colon = test system: HCC-2998 colon
# HCT-116 colon = test system: HCT-116 colon
# HCT-15 colon = test system: HCT-15 colon
# HL-60(TB) leukemia = test system: HL-60(TB) leukemia
# HOP-62 NSCLC = test system: HOP-62 NSCLC
# HOP-92 NSCLC = test system: HOP-92 NSCLC
# HS 578T breast = test system: HS 578T breast
# HT29 colon = test system: HT29 colon
# IGROV1 ovarian = test system: IGROV1 ovarian
# K-562 leukemia = test system: K-562 leukemia
# KM12 colon = test system: KM12 colon
# LOX IMVI melanoma = test system: LOX IMVI melanoma
# M14 melanoma = test system: M14 melanoma
# MALME-3M melanoma = test system: MALME-3M melanoma
# MDA-MB-231 breast = test system: MDA-MB-231 breast
# MDA-MB-435 = test system: MDA-MB-435
# MDA-N = test system: MDA-N
# NCI-H226 lung = test system: NCI-H226 lung
# NCI-H23 lung = test system: NCI-H23 lung
# NCI-H460 lung = test system: NCI-H460 lung
# NCI-H522 lung = test system: NCI-H522 lung
# NCI/ADR-RES ovarian = test system: NCI/ADR-RES ovarian
# OVCAR-3 ovarian = test system: OVCAR-3 ovarian
# OVCAR-4 ovarian = test system: OVCAR-4 ovarian
# OVCAR-5 ovarian = test system: OVCAR-5 ovarian
# OVCAR-8 ovarian = test system: OVCAR-8 ovarian
# PC-3 prostate = test system: PC-3 prostate
# RPMI-8226 leukemia = test system: RPMI-8226 leukemia
# RXF 393 renal = test system: RXF 393 renal
# SF-295 CNS = test system: SF-295 CNS
# SF-539 CNS = test system: SF-539 CNS
# SK-MEL-2 melanoma = test system: SK-MEL-2 melanoma
# SK-MEL-28 melanoma = test system: SK-MEL-28 melanoma
# SK-MEL-5 melanoma = test system: SK-MEL-5 melanoma
# SK-OV-3 ovarian = test system: SK-OV-3 ovarian
# SN12C renal = test system: SN12C renal
# SNB-19 CNS = test system: SNB-19 CNS
# SNB-75 CNS = test system: SNB-75 CNS
# SR leukemia = test system: SR leukemia
# SW-620 colon = test system: SW-620 colon
# T-47D breast = test system: T-47D breast
# TK-10 renal = test system: TK-10 renal
# U251 CNS = test system: U251 CNS
# UACC-257 melanoma = test system: UACC-257 melanoma
# UACC-62 melanoma = test system: UACC-62 melanoma
# UO-31 renal = test system: UO-31 renal
# MCF7 breast = test system: MCF7 breast
# MOLT-4 leukemia = test system: MOLT-4 leukemia
# SF-268 CNS = test system: SF-268 CNS
compound,measurement,setting,value
O=S(=O)(O)Nc1ccc(-c2nc3ccccc3s2)cc1Cl,TGI,786-0 renal,> 100 µM
same,TGI,A498 renal,> 100 µM
same,TGI,A549 NSCLC,> 100 µM
same,TGI,ACHN renal,> 100 µM
same,TGI,BT-549 breast,> 100 µM
same,TGI,CAKI-1 renal,> 100 µM
same,TGI,CCRF-CEM leukemia,> 100 µM
same,TGI,COLO 205 colon,> 100 µM
same,TGI,DU-145 prostate,> 100 µM
same,TGI,EKVX NSCLC,> 100 µM
same,TGI,HCC-2998 colon,> 100 µM
same,TGI,HCT-116 colon,> 100 µM
same,TGI,HCT-15 colon,> 100 µM
same,TGI,HL-60(TB) leukemia,> 100 µM
same,TGI,HOP-62 NSCLC,> 100 µM
same,TGI,HOP-92 NSCLC,> 100 µM
same,TGI,HS 578T breast,> 100 µM
same,TGI,HT29 colon,> 100 µM
same,TGI,IGROV1 ovarian,> 100 µM
same,TGI,K-562 leukemia,> 100 µM
same,TGI,KM12 colon,> 100 µM
same,TGI,LOX IMVI melanoma,> 100 µM
same,TGI,M14 melanoma,> 100 µM
same,TGI,MALME-3M melanoma,> 100 µM
same,TGI,MDA-MB-231 breast,> 100 µM
same,TGI,MDA-MB-435,> 100 µM
same,TGI,MDA-N,> 100 µM
same,TGI,NCI-H226 lung,> 100 µM
same,TGI,NCI-H23 lung,> 100 µM
same,TGI,NCI-H460 lung,> 100 µM
same,TGI,NCI-H522 lung,> 100 µM
same,TGI,NCI/ADR-RES ovarian,> 100 µM
same,TGI,OVCAR-3 ovarian,> 100 µM
same,TGI,OVCAR-4 ovarian,> 100 µM
same,TGI,OVCAR-5 ovarian,> 100 µM
same,TGI,OVCAR-8 ovarian,> 100 µM
same,TGI,PC-3 prostate,> 100 µM
same,TGI,RPMI-8226 leukemia,> 100 µM
same,TGI,RXF 393 renal,> 100 µM
same,TGI,SF-295 CNS,> 100 µM
same,TGI,SF-539 CNS,> 100 µM
same,TGI,SK-MEL-2 melanoma,> 100 µM
same,TGI,SK-MEL-28 melanoma,> 100 µM
same,TGI,SK-MEL-5 melanoma,> 100 µM
same,TGI,SK-OV-3 ovarian,> 100 µM
same,TGI,SN12C renal,> 100 µM
same,TGI,SNB-19 CNS,> 100 µM
same,TGI,SNB-75 CNS,> 100 µM
same,TGI,SR leukemia,> 100 µM
same,TGI,SW-620 colon,> 100 µM
same,TGI,T-47D breast,> 100 µM
same,TGI,TK-10 renal,> 100 µM
same,TGI,U251 CNS,> 100 µM
same,TGI,UACC-257 melanoma,> 100 µM
same,TGI,UACC-62 melanoma,> 100 µM
same,TGI,UO-31 renal,> 100 µM
CCc1oc2ccccc2c1C(=O)c1cc(Br)c(O)c(Br)c1,TGI,786-0 renal,55.6 µM
same,TGI,A498 renal,45 µM
same,TGI,A549 NSCLC,> 100 µM
same,TGI,ACHN renal,31.3 µM
same,TGI,BT-549 breast,71.4 µM
same,TGI,CAKI-1 renal,> 100 µM
same,TGI,CCRF-CEM leukemia,55.4 µM
same,TGI,COLO 205 colon,40.6 µM
same,TGI,DU-145 prostate,> 100 µM
same,TGI,EKVX NSCLC,95.2 µM
same,TGI,HCT-116 colon,55.7 µM
same,TGI,HCT-15 colon,76.2 µM
same,TGI,HL-60(TB) leukemia,33.3 µM
same,TGI,HOP-62 NSCLC,85.7 µM
same,TGI,HOP-92 NSCLC,64.2 µM
same,TGI,HS 578T breast,59 µM
same,TGI,HT29 colon,74.7 µM
same,TGI,IGROV1 ovarian,> 100 µM
same,TGI,K-562 leukemia,82.7 µM
same,TGI,KM12 colon,55.1 µM
same,TGI,LOX IMVI melanoma,55.3 µM
same,TGI,M14 melanoma,80.6 µM
same,TGI,MALME-3M melanoma,43.2 µM
same,TGI,MCF7 breast,51.5 µM
same,TGI,MDA-MB-231 breast,44.7 µM
same,TGI,MDA-MB-435,> 100 µM
same,TGI,MDA-N,> 100 µM
same,TGI,MOLT-4 leukemia,59.7 µM
same,TGI,NCI-H226 lung,50 µM
same,TGI,NCI-H23 lung,54.8 µM
same,TGI,NCI-H460 lung,34.2 µM
same,TGI,NCI-H522 lung,43.1 µM
same,TGI,NCI/ADR-RES ovarian,87.2 µM
same,TGI,OVCAR-3 ovarian,43.2 µM
same,TGI,OVCAR-4 ovarian,> 100 µM
same,TGI,OVCAR-5 ovarian,46.1 µM
same,TGI,OVCAR-8 ovarian,> 100 µM
same,TGI,PC-3 prostate,43.6 µM
same,TGI,RPMI-8226 leukemia,75.5 µM
same,TGI,RXF 393 renal,35 µM
same,TGI,SF-268 CNS,84.7 µM
same,TGI,SF-295 CNS,83.5 µM
same,TGI,SF-539 CNS,32.9 µM
same,TGI,SK-MEL-2 melanoma,45.3 µM
same,TGI,SK-MEL-28 melanoma,> 100 µM
same,TGI,SK-MEL-5 melanoma,32.2 µM
same,TGI,SK-OV-3 ovarian,> 100 µM
same,TGI,SN12C renal,67.3 µM
same,TGI,SNB-19 CNS,> 100 µM
same,TGI,SNB-75 CNS,48.6 µM
same,TGI,SR leukemia,55.4 µM
same,TGI,SW-620 colon,> 100 µM
same,TGI,T-47D breast,53.6 µM
same,TGI,TK-10 renal,64.9 µM
same,TGI,U251 CNS,31 µM
same,TGI,UACC-257 melanoma,42.8 µM
same,TGI,UACC-62 melanoma,33.6 µM
same,TGI,UO-31 renal,40.1 µM
COC(=O)CC1(O)C(C=C(C)C)C(C(=O)OC)C(=O)C(C(=O)OC)C1C(=O)OC (stereo unspecified),TGI,786-0 renal,> 100 µM
same,TGI,A498 renal,> 100 µM
same,TGI,A549 NSCLC,> 100 µM
same,TGI,ACHN renal,> 100 µM
same,TGI,BT-549 breast,> 100 µM
same,TGI,CAKI-1 renal,> 100 µM
same,TGI,CCRF-CEM leukemia,> 100 µM
same,TGI,COLO 205 colon,> 100 µM
same,TGI,DU-145 prostate,> 100 µM
same,TGI,EKVX NSCLC,> 100 µM
same,TGI,HCC-2998 colon,> 100 µM
same,TGI,HCT-116 colon,> 100 µM
same,TGI,HCT-15 colon,> 100 µM
same,TGI,HL-60(TB) leukemia,> 100 µM
same,TGI,HOP-62 NSCLC,> 100 µM
same,TGI,HOP-92 NSCLC,> 100 µM
same,TGI,HS 578T breast,> 100 µM
same,TGI,HT29 colon,> 100 µM
same,TGI,IGROV1 ovarian,> 100 µM
same,TGI,K-562 leukemia,> 100 µM
same,TGI,KM12 colon,> 100 µM
same,TGI,LOX IMVI melanoma,> 100 µM
same,TGI,M14 melanoma,> 100 µM
same,TGI,MALME-3M melanoma,> 100 µM
same,TGI,MCF7 breast,> 100 µM
same,TGI,MDA-MB-231 breast,> 100 µM
same,TGI,MDA-MB-435,> 100 µM
same,TGI,MDA-N,> 100 µM
same,TGI,MOLT-4 leukemia,> 100 µM
same,TGI,NCI-H226 lung,> 100 µM
same,TGI,NCI-H23 lung,> 100 µM
same,TGI,NCI-H460 lung,> 100 µM
same,TGI,NCI-H522 lung,> 100 µM
same,TGI,NCI/ADR-RES ovarian,> 100 µM
same,TGI,OVCAR-3 ovarian,> 100 µM
same,TGI,OVCAR-4 ovarian,> 100 µM
same,TGI,OVCAR-5 ovarian,> 100 µM
same,TGI,OVCAR-8 ovarian,> 100 µM
same,TGI,PC-3 prostate,> 100 µM
same,TGI,RPMI-8226 leukemia,> 100 µM
same,TGI,RXF 393 renal,> 100 µM
same,TGI,SF-268 CNS,> 100 µM
same,TGI,SF-295 CNS,> 100 µM
same,TGI,SF-539 CNS,> 100 µM
same,TGI,SK-MEL-2 melanoma,> 100 µM
same,TGI,SK-MEL-28 melanoma,> 100 µM
same,TGI,SK-MEL-5 melanoma,> 100 µM
same,TGI,SK-OV-3 ovarian,> 100 µM
same,TGI,SN12C renal,> 100 µM
same,TGI,SNB-19 CNS,> 100 µM
same,TGI,SR leukemia,> 100 µM
same,TGI,SW-620 colon,> 100 µM
same,TGI,TK-10 renal,> 100 µM
same,TGI,U251 CNS,> 100 µM
same,TGI,UACC-257 melanoma,> 100 µM
same,TGI,UACC-62 melanoma,> 100 µM
same,TGI,UO-31 renal,> 100 µM
